According to patent publication US12104192B2, “Method of preparing primary amines from amino acids using enzymatic conversion” (KOREA ADVANCED INSTITUTE OF SCIENCE AND TECHNOLOGY, priority 2020, dated 2024):

What follows are compounds tested on valine decarboxylase (assay: Enzymatic activity assay of purified valine decarboxylase with amino acid substrates, HPLC detection of primary amine). Conditions: 1 mM amino acid, 0.1 mM PLP, 150 μg purified his-tagged enzyme, 50 mM potassium phosphate buffer pH 7.5, 37° C., 2 hours.
Format: biochemical, Streptomyces viridifaciens
Procedure: An enzymatic activity assay was performed using a 50 mM potassium phosphate buffer (pH 7.5), and the substrate and enzyme used for the assay were added in the following amounts to the enzyme reaction solution.
Amino acids used as substrates were used at a concentration of 1 mM, and the amino acids used herein were L-alanine, L-2-aminobutyrate, 2-aminoisobutyrate, L-norvaline, L-valine, L-isovaline, L-norleucine, L-leucine, L-isoleucine, 1-aminocyclopentanecarboxylic acid, 1-aminocyclohexanecarboxylic acid, and L-2-phenylglycine. 0.1 mM pyridoxal phosphate (PLP) and 150 μg of the purified valine decarboxylase were added, followed by conducting reaction at 37° C. for 2 hours, and the sample after the reaction was analyzed by HPLC to identify primary amine.
Primary amine production was analyzed using HPLC (1100 Series HPLC; Agilent Technologies, Santa Clara, CA). The primary amine derivatization for analysis was performed in an automatic manner before analysis using an o-phthaldialdehyde (OPA; Sigma, St. Louis, MO) reagent. The OPA reagent for derivatization was prepared by dissolving 0.20 g of OPA reagent in 9.0 mL of methanol and then adding 1.0 mL of 0.40 M (pH 9.0) borate buffer and 160 μL of 2-mercaptoethanol thereto. For derivatization, 1 μL of the sample was mixed with 5 μL of 0.40 M (pH 9.0) borate buffer. Then, 1 μL of the OPA reagent for derivatization prepared above was added thereto, followed by HPLC analysis. Analysis was performed at 25° C. using an Eclipse plus C18 column (4.6×150 mm; Agilent Technologies). Solvent A for analysis was prepared by mixing 1.4 g/L of Na2HPO4 and 3.8 g/L of Na2B4O7·10H2O with 8 mg/L of NaN3, and adjusting the final pH of the resulting mixture to 7.2 using HCl. Solvent B was prepared by mixing 45% acetonitrile and 45% methanol with 10% H2O based on volume %. The solvent was fed at a rate of 2 mL/min. […] The derivatized secondary amines could be analyzed by detecting light with a wavelength of 230 nm using a variable wavelength detector (G1314A; Agilent Technologies).

Compound | conversion of the amino acid substrate to the corresponding primary amine by valine decarboxylase
CC(C)[C@H](N)C(=O)O [L-valine] | successfully converted
CCC[C@H](N)C(=O)O [L-norvaline] | successfully converted
CCCC[C@H](N)C(=O)O [L-norleucine] | successfully converted
C[C@H](N)C(=O)O [L-alanine] | successfully converted
NC1(C(=O)O)CCCCC1 [1-aminocyclohexanecarboxylic acid] | successfully converted
L-2-aminobutyrate | successfully converted
NC1(C(=O)O)CCCC1 [1-aminocyclopentanecarboxylic acid] | successfully converted
CC[C@H](C)[C@H](N)C(=O)O [L-isoleucine] | successfully converted
N[C@H](C(=O)O)c1ccccc1 [L-2-phenylglycine] | successfully converted
CC(C)(N)C(=O)O [2-aminobutyrate, 2-aminoisobutyrate] | successfully converted
CC(C)C[C@H](N)C(=O)O [L-leucine] | successfully converted
CC[C@](C)(N)C(=O)O [L-isovaline] | successfully converted
